Measurements as given in patent EP0409227A2, “Pyrimidine nucleosides, their preparation and pharmaceutical preparations” (MATTHES, Eckart, Dr., priority 1989, dated 1991).
Read-outs that look alike come from different tables or passages of the source.

Columns and labels:
[1] = test system: HBsAg-Sekretion von Hep G2 (2.2.15)-Zellen; assay: Inhibition of HBsAg secretion of Hep G2 (2.2.15) cells (solid-phase radioimmunoassay of the medium); format: cell-based, HBV
Protocol: (§1) Die Testung der antiviralen Wirksamkeit der Nucleoside auf zelluärer Ebene erfolgte an einer menschlichen Hepatoblastom-Zellinie, die mit dem HBV-Genom tranfiziert wurde und sowohl das Oberflächenantigen des Virus (HBsAg) als auch die HBV-DNA permanent produziert und infektiöse Viruspartikel in das Medium abgibt (Hep G2-Zellen, Klon 2.2.15, Sells et al. Proc.Natl.Acad. Sci. 84, 1005 (1987)). Die Zellen (5x10⁵/ml) wurden in RPMI 1640-Medium mit 2 mM Glutamin und 10% fetalem Kälberserum allein oder zusammen mit den Nucleosid-Analoga für 4 Tage inkubiert, danach wurden den Ansätzen für 24 Stunden ³H-Thymidin bzw. ³H-Desoxyadenosin (3 µCi/ml) zugesetzt, die Zellen abzentrifugiert und darin die säureunlösliche Radioaktivität und damit der Einfluß auf die DNA-Synthese bestimmt. Im Inkubationsmedium wurde das HBsAg durch Festphasenradioimmunoassay (Travenol-Genentech Diagnostics, Cambridge, MA) entsprechend den Instruktionen des Herstellers ermittelt. Die Tabelle 4 faßt die Ergebnisse zusammen, die belegen, daß die getesteten Verbindungen hochwirksame und selektive Hemmstoffe der HBV-Vermehrung sind.

Hep G2 (2.2.15)-Zellen = assay: DNA synthesis of Hep G2 (2.2.15) cells (acid-insoluble radioactivity after 3H-thymidine or 3H-deoxyadenosine); format: cell-based, menschlichen; settings: 4 days, then 24 h label, mean ± SD of five experiments
Protocol: as §1

HBV-Polymerase = biological target: T1, HBV-Polymerase (Hepatitis B virus genotype D subtype ayw, UniProt P03156); assay: Inhibition of HBV polymerase activity by nucleoside triphosphate analogues (method of Kaplan et al.); format: biochemical
T1 construct: Es wurde zunächst die Hemmbarkeit der HBV-assoziierten Polymerase; host or cells: virus-associated endogenous polymerase
Text: Das Hepatitis B Virus (HBV) besitzt eine zirkuläre, partiell doppelsträngige DNA, welche nach Infektion einer Leberzelle durch eine viruseigene Polymerase repliziert wird. Dieser Vorgang setzt jedoch die Synthese einer RNA durch eine zelluläre RNA-Polymerase voraus. Nur diese RNA-Matrize - im Zusammenhang mit der Replikation auch als Prägenom bezeichnet - kann von der HBV-Polymerase für die Synthese zunächst eines RNA-DNA Hybrids und dann der doppelsträngigen DNA benutzt werden. Damit verfügt die HBV-Polymerase über eine enzymatische Aktivität, die der einer reversen Transcriptase ähnelt (Will et al., J.Virology 61, 904 (1987)). Es wurde zunächst die Hemmbarkeit der HBV-assoziierten Polymerase durch die 5′-Triphosphate der erfindungsgemäßen Verbindungen untersucht. Dazu wurde die von Kaplan et al. (J.Virology 12, 995 (1973)) angegebene Methode zur Bestimmung der HBV-Polymerase benutzt, wobei die zu testenden Triphosphate den Ansätzen in verschiedenen Konzentrationen zugesetzt wurden. Die Hemmung der Enzymreaktion wurde nach 3-stündiger Inkubation bei 37 °C durch Vergleich mit einem Kontrollwert ermittelt und daraus die Konzentration der zugesetzten Analoga bestimmt, die zu einer 50 %igen Hemmung der HBV-Polymerase-Aktivität führt (ID₅₀). Tabelle 1 zeigt die Ergebnisse, wobei insbesondere 2′,3′-Didesoxy-3′-fluor-5-methylcytidin durch einen Wert ID₅₀ von 0,03 µM herausragt und damit zu den stärksten bisher bekannten Hemmstoffen der HBV-Polymerase zu rechnen ist. Tabelle 1

[2] = nucleoside 0,01 µM, 4 days + 24 h, mean ± SD of five experiments
[3] = nucleoside 0,1 µM, 4 days + 24 h, mean ± SD of five experiments
[4] = nucleoside 0,01 µM, % of control without nucleoside (100)
[5] = nucleoside 0,1 µM, % of control without nucleoside (100)
[6] = nucleoside 0,03 µM, 4 days + 24 h, mean ± SD of five experiments
[7] = nucleoside 0,3 µM, 4 days + 24 h, mean ± SD of five experiments
[8] = nucleoside 0,03 µM, % of control without nucleoside (100)
[9] = nucleoside 0,3 µM, % of control without nucleoside (100)
[10] = nucleoside 0,003 µM, 4 days + 24 h, mean ± SD of five experiments
[11] = nucleoside 0,003 µM, % of control without nucleoside (100)
[12] = nucleoside 1,0 µM, 4 days + 24 h, mean ± SD of five experiments
[13] = nucleoside 1,0 µM, % of control without nucleoside (100)
[14] = nucleoside 3,0 µM, 4 days + 24 h, mean ± SD of five experiments
[15] = nucleoside 3,0 µM, % of control without nucleoside (100)

T1 sequence (P03156 whole entry): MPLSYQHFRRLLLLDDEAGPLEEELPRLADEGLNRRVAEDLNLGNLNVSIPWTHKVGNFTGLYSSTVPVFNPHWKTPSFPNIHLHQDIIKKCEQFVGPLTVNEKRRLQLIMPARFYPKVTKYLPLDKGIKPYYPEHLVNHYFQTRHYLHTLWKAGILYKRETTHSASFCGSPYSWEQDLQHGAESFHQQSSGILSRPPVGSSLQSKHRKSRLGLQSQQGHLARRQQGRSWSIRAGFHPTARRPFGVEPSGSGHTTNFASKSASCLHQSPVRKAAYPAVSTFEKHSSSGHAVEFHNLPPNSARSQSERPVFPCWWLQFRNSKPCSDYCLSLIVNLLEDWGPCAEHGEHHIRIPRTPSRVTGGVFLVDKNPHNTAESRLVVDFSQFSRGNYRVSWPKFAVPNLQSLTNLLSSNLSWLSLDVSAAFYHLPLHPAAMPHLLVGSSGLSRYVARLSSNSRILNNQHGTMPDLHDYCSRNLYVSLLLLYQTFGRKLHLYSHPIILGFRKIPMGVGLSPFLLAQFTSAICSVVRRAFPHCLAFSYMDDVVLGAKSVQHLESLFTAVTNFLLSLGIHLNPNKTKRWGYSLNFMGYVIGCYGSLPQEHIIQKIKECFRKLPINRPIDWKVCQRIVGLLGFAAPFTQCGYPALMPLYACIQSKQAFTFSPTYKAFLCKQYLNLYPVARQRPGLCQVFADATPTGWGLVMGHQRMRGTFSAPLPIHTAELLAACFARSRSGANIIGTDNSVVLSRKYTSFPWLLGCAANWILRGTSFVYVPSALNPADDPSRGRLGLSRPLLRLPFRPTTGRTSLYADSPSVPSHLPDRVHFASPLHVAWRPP

Structure (SMILES) | HBsAg [1, 2] | HBsAg [1, 3] | HBsAg [1, 4] [%] | HBsAg [1, 5] [%] | HBsAg [1, 6] | HBsAg [1, 7] | HBsAg [1, 8] [%] | HBsAg [1, 9] [%] | HBsAg [1, 10] | HBsAg [1, 11] [%] | HBsAg [1, 12] | HBsAg [1, 13] [%] | HBsAg [1, 14] | HBsAg [1, 15] [%] | ^3H-DNA (Hep G2 (2.2.15)-Zellen; nucleoside 0,01 µM) [dpm/Kultur] | ^3H-DNA (Hep G2 (2.2.15)-Zellen; nucleoside 0,1 µM) [dpm/Kultur] | ^3H-DNA (Hep G2 (2.2.15)-Zellen; nucleoside 0,03 µM) [dpm/Kultur] | ^3H-DNA (Hep G2 (2.2.15)-Zellen; nucleoside 0,3 µM) [dpm/Kultur] | ^3H-DNA (Hep G2 (2.2.15)-Zellen; nucleoside 0,003 µM) [dpm/Kultur] | ^3H-DNA (Hep G2 (2.2.15)-Zellen; nucleoside 1,0 µM) [dpm/Kultur] | also measured
Nc1ccn([C@H]2C=C[C@@H](CO)O2)c(=O)n1 [2',3'-Didehydro-2',3'-didesoxycytidin] | 12,1 ± 1,6 ng/ml | 0,8 ± 0,2 ng/ml | 69 | 5 | 5,8 ± 1,2 ng/ml | 0,4 ± 0,2 ng/ml | 33 | 2 | 18,7 ± 2,8 ng/ml | 107 | < 0,1 ng/ml | < 1 | < 0,1 ng/ml | < 1 | 18410 ± 1895 | 19930 ± 1830 | 15685 ± 1740 | 14270 ± 1655 | 17940 ± 1865 | 12350 ± 1310 | ^3H-DNA (Hep G2 (2.2.15)-Zellen; nucleoside 3,0 µM): 6535 ± 790 dpm/Kultur
Nc1nc(N)c2ncn([C@H]3C[C@H](F)[C@@H](CO)O3)c2n1 [2',3'-Didesoxy-3'-fluor-2,6-diaminopurinribosid] | 3,2 ± 0,6 ng/ml | < 0,1 ng/ml | 18 | < 1 | 2,0 ± 0,5 ng/ml | < 0,1 ng/ml | 11 | < 1 | 15,9 ± 2,7 ng/ml | 91 | < 0,1 ng/ml | < 1 | < 0,1 ng/ml | < 1 | 16820 ± 1775 | 19990 ± 1820 | 17265 ± 1895 | 15125 ± 1795 | 19535 ± 1835 | 18885 ± 1950 | ^3H-DNA (Hep G2 (2.2.15)-Zellen; nucleoside 3,0 µM): 17740 ± 1670 dpm/Kultur
CCc1cn([C@H]2C[C@H](F)[C@@H](CO)O2)c(=O)nc1N [2',3'-Didesoxy-3'-fluor-5-ethylcytidin] | 8,2 ± 0,8 ng/ml | 0,6 ± 0,1 ng/ml | 42 | 3 | 2,6 ± 0,6 ng/ml | < 0,1 ng/ml | 13 | < 1 | 16,7 ± 2,6 ng/ml | 87 | < 0,1 ng/ml | < 1 | < 0,1 ng/ml | < 1 | 13855 ± 1945 | 15245 ± 1655 | 14570 ± 1695 | 14130 ± 1940 | 14020 ± 1780 | 9850 ± 1230 | ^3H-DNA (Hep G2 (2.2.15)-Zellen; nucleoside 3,0 µM): 6640 ± 965 dpm/Kultur
Nc1nc2c(ncn2[C@H]2C[C@H](N)[C@@H](COP(=O)(O)OP(=O)(O)OP(=O)(O)O)O2)c(=O)[nH]1 [2′,3′-Didesoxy-3′-aminoguanosin-5′-triphosphat] | – | – | – | – | – | – | – | – | – | – | – | – | – | – | – | – | – | – | – | – | IC50 (HBV-Polymerase; 50 % inhibition of HBV polymerase activity, 3 h incubation at 37 °C, read-out: ID₅₀): 4000 nM
Nc1ncc2ncn([C@H]3C[C@H](F)[C@@H](COP(=O)(O)OP(=O)(O)OP(=O)(O)O)O3)c2n1 [2′,3′-Didesoxy-3′-fluor-2-aminopurinribosid-5′-triphosphat] | – | – | – | – | – | – | – | – | – | – | – | – | – | – | – | – | – | – | – | – | IC50 (HBV-Polymerase): 600 nM
Nc1nc2c(ncn2[C@H]2C[C@H](F)[C@@H](COP(=O)(O)OP(=O)(O)OP(=O)(O)O)O2)c(=S)[nH]1 [2′,3′-Didesoxy-3′-fluor-6-thioguanosin-5′-triphosphat] | – | – | – | – | – | – | – | – | – | – | – | – | – | – | – | – | – | – | – | – | IC50 (HBV-Polymerase): 500 nM
Cc1cn([C@@H]2O[C@H](CO)[C@@H](O)[C@@H]2O)c(=O)nc1N [Arabinosyl-5-methyl-cytosin, 1-β-D-Arabinofuranosyl-5-methylcytosin] | 12,4 ± 1,2 ng/ml | 3,6 ± 0,5 ng/ml | 71 | 21 | 10,3 ± 1,2 ng/ml | 0,6 ± 0,3 ng/ml | 59 | 3 | 16,8 ± 1,7 ng/ml | 96 | < 0,1 ng/ml | < 1 | < 0,1 ng/ml | < 1 | 17990 ± 1635 | 16225 ± 1825 | 19075 ± 1905 | 18600 ± 1865 | 17755 ± 1750 | 12415 ± 1070 | ^3H-DNA (Hep G2 (2.2.15)-Zellen; nucleoside 3,0 µM): 8470 ± 935 dpm/Kultur
